Reference: PMC6781309, “Assessing Drug Interaction and Pharmacokinetics of Loxoprofen in Mice Treated with CYP3A Modulators” (Pharmaceutics, 2019)
Blank lines part the entries; values can stand above or below the molecule they belong to.

Key:
CYP2D = assay: CYP activity in liver S9 of treated mice: dextromethorphan O-demethylation; type: in vivo, Male ICR mice; settings: liver S9, dextromethorphan 5 µM
Protocol: (§1) Twenty-four hours after the last treatment, the liver was excised and homogenized with three volumes of ice-cold 0.1 M potassium phosphate buffer (pH 7.4). The supernatant fraction was then separated as the S9 fraction from the mixture by centrifugation at 9000× g at 4 °C and stored at −80 °C until use.
(§2) To characterize the CYP activities in the harvested livers, phenacetin O-demethylation (using 80 µM of phenacetin) for CYP1A, dextromethorphan O-demethylation (using 5 µM of dextromethorphan) for CYP2D, and midazolam 1’-hydroxylation (using 5 µM of midazolam) for CYP3A were used as cocktail probe reactions. The level of protein in the S9 fraction was determined by Bradford assay. The cocktail probes were then incubated with 10 µL of each S9 fraction, potassium phosphate buffer (pH 7.4), and an NADPH generating system (NGS) in a final volume of 100 µL. After incubation for 30 min at 37 °C, ice-cold ACN containing 0.1% formic acid and IS (5 µM) was added to stop the reaction. Samples were then vortexed and centrifuged at 13,000× g for 10 min at 4 °C. Finally, the supernatants were transferred to LC-MS/MS vials for analysis.

CYP1A = settings: liver S9, phenacetin 80 µM
Protocol: To characterize the CYP activities in the harvested livers, phenacetin O-demethylation (using 80 µM of phenacetin) for CYP1A, dextromethorphan O-demethylation (using 5 µM of dextromethorphan) for CYP2D, and midazolam 1’-hydroxylation (using 5 µM of midazolam) for CYP3A were used as cocktail probe reactions [21, 22]. The level of protein in the S9 fraction was determined by Bradford assay [23]. The cocktail probes were then incubated with 10 µL of each S9 fraction, potassium phosphate buffer (pH 7.4), and an NADPH generating system (NGS) in a final volume of 100 µL. After incubation for 30 min at 37 °C, ice-cold ACN containing 0.1% formic acid and IS (5 µM) was added to stop the reaction. Samples were then vortexed and centrifuged at 13,000× g for 10 min at 4 °C. Finally, the supernatants were transferred to LC-MS/MS vials for analysis.

CYP3A = assay: CYP activity in liver S9 of treated mice: midazolam 1'-hydroxylation; settings: liver S9, KTC 60 mg/kg i.p. once, midazolam 5 µM, n = 3
Protocol: as §1, §2

[1] = Plasma pharmacokinetics of LOX, cis-LOX and trans-LOX after oral LOX in mice pretreated with DEX, KTC or vehicle; type: in vivo, Male ICR mice; settings: mouse plasma, LOX 20 mg/kg oral, mean ± SE, n = 3
Protocol: The acclimatized animals were divided into eight groups, with each group containing 3 mice: groups I and II, vehicle (corn oil); groups III and IV, DEX-treated; groups V and VI, vehicle (10% Ethanol); and groups VII and VIII, KTC-treated group. […] Then, animals were fasted for 12 hours with free access to water before starting the experiment. […]
After the oral administration of LOX, blood from groups I, III, V, and VII was collected from the tail at 0, 5, 10, 15, 30, 60, 120, and 240 min post-administration and placed into sodium heparin-containing tubes. After the last blood collection, the mice were sacrificed by cervical dislocation. Plasma was then prepared by centrifuging the blood at 4000× g for 15 min at 4 °C and stored at −80 °C until analysis. For analysis, each sample was prepared by mixing plasma (10 µL) and 90 µL of ACN containing 0.1% formic acid and 5 µM of tolbutamide as an internal standard (IS). […] Finally, 10 µL of sample supernatant was injected into the LC-MS/MS system. The PK parameters (the maximum plasma concentration [Cmax], time to reach the maximum plasma concentration [Tmax], elimination half-life [T1/2], and area under the plasma concentrations [AUC]) were analyzed by WinNonlin software (Version 2.1, Scientific Consulting, Louisville, KY, USA).
A Shimadzu Prominence UFLC system (Kyoto, Japan) connected to a TSQ vantage triple quadrupole mass spectrometer with a HESI-II spray source incorporated with a DGU-20A5 degasser, an LC-20AD pump, a SIL-20A autosampler, and a CTO-20A column oven was used for the analyses. A shim-pack GIS C18 column (150 × 3.0 mm, […]) was used to separate analytes in the samples. Mobile phases A and B were composed of water with formic acid and ACN with 0.1% formic acid, respectively, and the flow rate was 0.50 mL/min at 40 °C. The gradient conditions were as follows: 20% of B between 0 and 0.25 min, 20–80% of B between 0.25 and 9.75 min, 80–20% of B between 9.75 and 10 min, and 20% of B between 10 and 13 min. The MS was operated under the following conditions: electrospray ionization in negative mode at 3.0 kV, capillary temperature at 350 °C, vaporizer temperature at 300 °C, sheath gas pressure at 35 Arb, and auxiliary gas pressure at 10 Arb. Finally, Xcalibur software (Thermo Fisher Scientific Inc., Waltham, MA, USA) was used for data analysis.

[2] = Relative concentration of LOX and its metabolites in hepatic portal vein plasma 10 min post-LOX (HRMS); type: in vivo, Male ICR mice; settings: hepatic portal vein plasma 10 min after LOX 20 mg/kg oral, n = 3; for Relative concentration in plasma (DEX average % of area, VH corn oil = 100): DEX 40 mg/kg i.p. 3 days; for Relative concentration in plasma (KTC average % of area, VH 10% ethanol = 100): KTC 60 mg/kg i.p. single dose
Protocol: The acclimatized animals were divided into eight groups, with each group containing 3 mice: groups I and II, vehicle (corn oil); groups III and IV, DEX-treated; groups V and VI, vehicle (10% Ethanol); and groups VII and VIII, KTC-treated group. […] Then, animals were fasted for 12 hours with free access to water before starting the experiment. After fasting, LOX (20 mg/kg) was administered orally to […].
Similarly, blood from groups II, IV, VI, and VIII was collected from the hepatic portal vein 10 min post-LOX administration to identify metabolites of LOX and to analyze drug–drug interactions. Plasma from these samples was prepared as explained above. Then, 300 µL of ACN having 0.1% formic acid and 5 µM of the IS were mixed with 100 µL of each plasma sample. […] Supernatants were transferred into tubes and dried using a Labconco Speed Vac (Labconco Corporation, Kansas City, MO, USA). […] Each supernatant was transferred into an LCMS vial, and 5 µL were injected into a high-resolution mass spectrometer (HRMS).
HRMS coupled with ultrahigh performance liquid chromatography (UHPLC) was used to detect hydroxy-LOX and other metabolites of LOX. The UHPLC system, Dionex Ultimate 3000 (Dionex Softron GmbH, Germering, Germany) consisted of an HPG-3200SD Standard binary pump, a WPS 3000 TRS analytical autosampler, and a TCC-3000 SD column compartment. In this experiment, the HRMS was a Q Exactive Focus quadrupole-Orbitrap MS (Thermo Fisher Scientific, Bremen, Germany) equipped with a heated electrospray ionization (HESI-II) ion probe.
LOX was detected as a deprotonated ion [M-H]^− at m/z 245.1175 in negative ion mode. Therefore, negative ion mode was used with the following optimized conditions for LOX: spray voltage of 2.5 kV, capillary temperature of 320 °C, auxiliary gas at 12 aux unit, aux gas heater temperature of 200 °C, sheath gas at 35 aux units, and S-lens RF level of 50. LOX and its metabolites were separated using a 150 mm × 2.1 mm, 2.6-μm reverse-phase liquid chromatography column, Kinetex® C18 column (Phenomenex, CA, USA) at 40 °C. Furthermore, MS-grade solvents were used as the mobile phase in gradient elution mode: 0.1% aqueous formic acid as Solvent A and 0.1% formic acid in ACN as Solvent B. The flow was set to 0.22 mL/min with a gradient condition of Solvent B as 10% between 0 and 0.5 min, 10–50% between 0.5 and 21.5 min, 50–95% between 21.5 and 22.5 min, 95% between 22.5 and 25.5 min, 95–10% between 25.5 and 25.6 min, and 10% between 25.6 and 30 min.

[3] = pretreated DEX 40 mg/kg i.p. 3 days
[4] = pretreated KTC 60 mg/kg i.p. single dose
[5] = pretreated VH (10% ethanol) i.p. single dose
[6] = pretreated VH (corn oil) i.p. 3 days

- Metabolic activity of other CYP enzymes (CYP2D, dextromethorphan O-demethylation), VH vs treated (CYP2D): unaffected
- Metabolic activity of other CYP enzymes (CYP1A, phenacetin O-demethylation), VH vs treated (CYP1A): unaffected
Compound: C[C@@H]1C[C@H]2[C@@H]3CCC4=CC(=O)C=C[C@]4(C)[C@@]3(F)[C@@H](O)C[C@]2(C)[C@@]1(O)C(=O)CO [DEX, dexamethasone]

Compound: CC(=O)N1CCN(c2ccc(OCC3COC(Cn4ccnc4)(c4ccc(Cl)cc4Cl)O3)cc2)CC1 (stereo not shown) [KTC, ketoconazole]
- Metabolic activity of other CYP enzymes (CYP2D, dextromethorphan O-demethylation), VH vs treated (CYP2D): unaffected
- Effect on the metabolism of CYP3A4 substrate (midazolam) compared to the VH group (CYP3A): significantly decreased

- AUC(0–60) [1, 3]: 29.9 ± 4.4 µg·min/mL
- AUC(0–∞) [1, 3]: 31.5 ± 4.4 µg·min/mL
- Cmax [1, 3]: 1100 ± 200 ng/mL
- T1/2 (elimination half-life) [1, 3]: 13.9 ± 0.6 min
- Tmax [1, 3]: 10.0 ± 1.0 min
- AUC(0–60) [1, 4]: 49.0 ± 5.9 µg·min/mL
- AUC(0–∞) [1, 4]: 51.9 ± 6.1 µg·min/mL
- Cmax [1, 4]: 1600 ± 100 ng/mL
- T1/2 (elimination half-life) [1, 4]: 13.4 ± 0.6 min
- Tmax [1, 4]: 11.6 ± 0.8 min
- AUC(0–60) [1, 5]: 36.0 ± 3.9 µg·min/mL
- AUC(0–∞) [1, 5]: 38.4 ± 4.4 µg·min/mL
- Cmax [1, 5]: 1200 ± 100 ng/mL
- T1/2 (elimination half-life) [1, 5]: 13.3 ± 0.9 min
- Tmax [1, 5]: 13.3 ± 0.8 min
- AUC(0–60) [1, 6]: 72.7 ± 12.4 µg·min/mL
- AUC(0–∞) [1, 6]: 75.8 ± 12.8 µg·min/mL
- Cmax [1, 6]: 2400 ± 300 ng/mL
- T1/2 (elimination half-life) [1, 6]: 12.3 ± 0.3 min
- Tmax [1, 6]: 10.4 ± 0.7 min
- Relative concentration in plasma (DEX average % of area, VH corn oil = 100) [2]: 61.9 ± 3.9%
- Relative concentration in plasma (DEX average % of area, VH corn oil = 100) ([2]; listed as M2): 61.91%
- Relative concentration in plasma (KTC average % of area, VH 10% ethanol = 100) [2]: 173.1 ± 5.8%
- Relative concentration in plasma (KTC average % of area, VH 10% ethanol = 100) ([2]; listed as M2): 173.08%
Compound: CC(C(=O)O)c1ccc(CC2CCCC2O)cc1 (stereo not drawn) [cis-LOX]
